Assay results as given in PMC10981997, “PEDF peptide plus hyaluronic acid stimulates cartilage regeneration in osteoarthritis via STAT3-mediated chondrogenesis” (Bone & Joint Research, 2024).

Legend:
BM-MSCs = test: BrdU incorporation (proliferation) of BM-MSCs in expansion medium; format: cell-based, rat; details: pretreatment before 29-mer 10 μM, p < 0.001 vs 29-mer
Description: Sprague-Dawley rats were anaesthetized and their femora were aseptically harvested, washed in a mixture of PBS and 1% penicillin/streptomycin for five minutes, dissected of all soft-tissue, transected at their epiphysis, and their marrow cavity rinsed repeatedly with a mixture of heparin (AGGLUTEX INJ 5,000 U/ml; working conc. 100 U/ml) and Dulbecco’s Modified Eagle Medium (DMEM; Gibco, Thermo Fisher Scientific). The harvested cells were collected, dispersed by pipetting, and centrifuged at 1,000× g for five minutes at RT. Cell pellets were resuspended with DMEM and then the cell suspension was transferred to a 15 ml centrifuge tube containing 5 ml of Percoll (1.073 g/ml; MilliporeSigma). After centrifugation at 1,500× g for 30 minutes, the mononuclear cells in the middle layer were obtained, washed three times with PBS, and suspended in expansion medium (low-glucose DMEM with 10% heat-inactivated FBS, 1% penicillin/streptomycin). […] BrdU immunostaining of BM-MSCs was performed as in Ho et al’s[14] study.
BM-MSCs were expanded for seven days in culture and then exposed to the 29-mer (10 μM) for 24 hours. Cell proliferation was detected by BrdU pulse-labelling for four hours and analyzed by BrdU immunostaining (red colour; Figure 1a).

articular cartilage (AC) = test: In vivo BrdU labelling and immunostaining of chondrogenic markers in damaged AC; design: species or system rat; details: inhibitor 1 mM in 25 µl 5% HA intra-articular 60 min before 29-mer/HA at days 8 and 12
Description: Rats were anaesthetized by an intraperitoneal injection of xylazine (10 mg/kg) and then the right knees were injected with MIA (1 mg dissolved in 25 µl of sterile saline), using a 27-gauge needle through the patellar ligament of the knees.[18],[19] The left knee joints (control) were injected with saline. To prepare the 29-mer/HA, the 29-mer was dissolved in dimethylsulfoxide (DMSO) to make a 10 mM stock solution. Equal volumes of DMSO and 29-mer (0.5 µl) were dissolved in HA. At days 8 and 12 after MIA injection, the right knees (n = 6 per group) were randomly injected by: 1) 29-mer/25 µl of 5% HA (final concentration of 29-mer at 0.2 mM); 2) DMSO vehicle/5% HA; 3) control peptide/5% HA; 4) 5% HA alone; and 5) 29-mer/25 µl of phosphate-buffered saline (PBS; final concentration of 29-mer at 0.2 mM). […]
BrdU was reconstituted in DMSO as stock (80 mM). […] Deparaffinized sections were treated with 1N HCl at RT for 1 h, and DNA synthesis was assessed by anti-BrdU antibody. […] Images were captured using a Zeiss epifluorescence microscope with a CCD camera (Zeiss, Germany), and blinded quantification was performed in triplicate by manually counting within each section. […]

SMILES | effect of inhibitor pretreatment on the 29-mer-induced BrdU+ levels (BM-MSCs) | effect of inhibitor on 29-mer/HA-induced BrdU-labelled chondrocytes (articular cartilage (AC))
CN(C)C(=O)Nc1cccc(-c2ccc(N(C)C)cc2)c1 [atglistatin, Atglistatin] | significantly suppressed | blocked
C[C@H]1COC2=C1C(=O)C(=O)c1c2ccc2c1CCCC2(C)C [CPT, cryptotanshinone] | significantly suppressed | blocked
